Patent publication US8895579B2, “Heterotricyclic AMPA receptor antagonists for treatment of epilepsy, pain, and other neurological disorders and diseases” (Northwestern University, priority 2010, dated 2014)

Columns and labels:
[1] = system: primary hippocampal neurons; assay: In vitro model of status epilepticus (Mg2+ removal, 2 μM glycine), action potential firing in hippocampal neurons; assay type: cell-based
Description: (§1) Experiments involving primary hippocampal neurons were carried out as described previously (Vivithanaporn et al., 2007). Dissociated neurons were cultured from E18 prenatal hippocampi and were used for analysis from between 17 and 28 days in vitro. The extracellular solution was the same as used for recombinant receptor analysis, while the internal solution for voltage clamp recordings contained (in mM) 95 CsF, 25 CsCl, 10 Cs-HEPES, 10 EGTA, 2 NaCl, 2 Mg-ATP, 10 QX-314, 5 TEA. and 5 4-AP (pH 7.3) and the internal solution for current clamp recordings contained (in mM) 120 KMeSO4, 5 KCl, 5 NaCl, 1 MgCl2, 11 Na-HEPES, 10 phosphocreatine, 4 Na-ATP, and 0.3 Na-GTP (pH 7.0). Borosilicate patch electrodes were pulled and fire polished to 3-5 MΩ resistance. Both whole cell current clamp and voltage clamp recordings were performed using an Axopatch 200B amplifier (MDS, Sunnyvale, Calif.) and filtered at 20 kHz. Gigaohm seals were established in voltage clamp mode and, after membrane rupture, the recordings were carried out either in voltage clamp (clamped at Vm=−70 mV) with a […] series resistance, which was compensated to ˜60%, or in current clamp mode ([…]) with the bridge balance was corrected and pipette resistance neutralized. In vitro status epilepticus (SE) was induced as described previously (Deshpande et al., 2007; Pal et al., 1999) and action potentials were recorded in current clamp mode. Briefly for in vitro SE, magnesium-containing external solution was exchanged for external solution without magnesium and supplemented with 2 μM glycine. This solution exchange produced a period of rapid depolarization and increased AP firing, followed by a period of channel inactivation and reduced AP firing. After channel inactivation, neurons characteristically would hyperpolarize to hold at a membrane voltage (Vm) which was depolarized relative to control Vm, with an increase in AP firing frequency. […] External solutions were bath-applied at a flow rate of 1.5-2 ml/minute. After recording a basal control period, IKM compounds were applied for five minutes (10 minutes for in vitro SE experiments) and changes in excitatory post-synaptic current (EPSC) charge transfer or action potential (AP) frequency were analyzed during the last two minutes of IKM application.
Several AMPA receptor selective antagonists reduce neuronal hyperactivity in both acute brain slice preparations and in in vitro models of epilepsy (Grasso et al., 1999; Szabados et al., 2001). […] We therefore tested the efficacy of IKM-159 in reducing the hyperactive neuronal phenotype in dissociated hippocampal neurons using an in vitro model of status epilepticus (SE) (Deshpande et al., 2007; Pal et al., 1999). […]

[2] = biological target: T1, GluK1-2b (Rattus norvegicus, UniProt P22756); assay: [3H]-KA radioligand binding, membranes of HEK293-T/17 cells expressing GluK1-2b; details: 10 nM [3H]-KA, 1 h at 4° C., read-out: [3H]KA bound as percent of total (specific) binding in absence of competing ligand
T1 construct: myc; expressed in transfected cells; host or cells: HEK293-T/17 (CRL-11268)
Description: Radioligand binding. HEK293-T/17 cells were transfected with 5 μg of iGluR cDNA in 100 mm^2 culture dishes. Two days post transfection, the plates were washed twice with ice-cold Dulbecco's phosphate-buffered saline (DPBS) and then incubated with 50 mM Tris (pH 7.4) and 1 mM EDTA for three minutes on ice. Cells were collected and centrifuged for five minutes at 800 g at room temperature. The cell pellet was homogenized in 50 mM Tris (pH 7.4) containing 320 mM sucrose (homogenization buffer, HB) on ice using a glass dounce homogenizer and centrifuged at 4° C. for 10 minutes at 800 g. The supernatant, containing the membrane fragments, was saved and the remaining pellet containing nuclei and unbroken cells was resuspended in HB. This homogenization process was repeated two more times and after collection of the final resulting supernatant, the remaining pellet was discarded. The collected supernatants were centrifuged at 4° C. for 20 minutes at 20000 g and the resulting supernatant was discarded leaving a membrane-containing pellet. […] Non-specific binding was determined as the amount of radioligand bound in the presence of a saturating concentration of glutamate (1 mM). Total binding was determined as the amount of radioligand bound in the absence of any competing ligands minus the non-specific binding. […]

[3] = system: AMPA receptor-mediated EPSCs in primary hippocampal neurons; assay: AMPA receptor EPSC charge transfer during spontaneous synaptic bursts, whole-cell voltage clamp, cultured hippocampal neurons; assay type: cell-based; details: 30 μM
Description: as §1
We first measured the actions of the IKM compounds on the charge transfer during spontaneously occurring, polysynaptic bursts of AMPA receptor excitatory post-synaptic currents (EPSCs) in cultured hippocampal neurons (recorded in the presence of bicuculline methiodide and picrotoxin to inhibit GABAA receptors and D-APV to inhibit NMDA receptors). […] IKM-159 had the greatest inhibitory effect at a fixed concentration of 30 μM, producing a reduction in charge transfer of 65±5% (n=6, p<0.01). […] Despite the polar chemical nature of the compounds, recoveries to basal EPSC charge transfers were minimal.

T1 sequence (P22756 31-905 isoform P22756-2 limits assumed): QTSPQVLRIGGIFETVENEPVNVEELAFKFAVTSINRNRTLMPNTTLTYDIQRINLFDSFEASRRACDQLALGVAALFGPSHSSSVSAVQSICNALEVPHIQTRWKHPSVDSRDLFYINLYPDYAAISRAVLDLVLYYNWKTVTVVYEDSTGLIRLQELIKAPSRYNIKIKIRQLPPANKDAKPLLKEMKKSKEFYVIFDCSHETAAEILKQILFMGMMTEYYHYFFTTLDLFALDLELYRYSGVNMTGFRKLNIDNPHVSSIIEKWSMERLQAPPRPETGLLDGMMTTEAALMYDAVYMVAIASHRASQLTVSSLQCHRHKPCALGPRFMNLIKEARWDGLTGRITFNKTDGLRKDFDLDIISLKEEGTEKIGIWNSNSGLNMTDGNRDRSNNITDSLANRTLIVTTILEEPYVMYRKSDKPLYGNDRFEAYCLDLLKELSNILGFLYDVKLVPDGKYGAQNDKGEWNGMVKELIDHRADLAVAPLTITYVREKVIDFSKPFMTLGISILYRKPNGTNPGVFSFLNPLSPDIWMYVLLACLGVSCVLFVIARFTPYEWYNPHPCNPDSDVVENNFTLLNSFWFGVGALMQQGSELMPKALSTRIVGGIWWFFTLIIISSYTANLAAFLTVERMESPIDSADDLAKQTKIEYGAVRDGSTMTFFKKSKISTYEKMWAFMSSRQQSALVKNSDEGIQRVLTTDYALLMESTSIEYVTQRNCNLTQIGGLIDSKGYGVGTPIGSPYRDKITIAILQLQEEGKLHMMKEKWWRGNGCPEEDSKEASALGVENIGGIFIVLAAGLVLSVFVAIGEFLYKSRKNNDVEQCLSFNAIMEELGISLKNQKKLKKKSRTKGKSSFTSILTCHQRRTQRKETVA

O=C(O)C[C@@]12O[C@H]3C=CCN[C@H]3C1CN[C@H]2C(=O)O (stereo partly drawn) [IKM-159]
AP firing frequency in SE condition with compound ([1]; 3 μM, SE condition 5.7±1.2 Hz, n.s.): 4.3±1.7 Hz | AP firing frequency upon wash out of compound ([1]; 20 μM, 10 minutes after removal): 1.0±0.3 Hz | AP firing frequency in SE condition with compound ([1]; 20 μM, SE condition 2.3±0.4 Hz): 0.9±0.3 Hz | activity at 100 µM [2]: 105 ± 5% | reduction from control charge transfer [3]: 65±5% | charge transfer during bursts of AMPA receptor-mediated synaptic events as a percent of the charge transfer during the control period ([3]; voltage clamped at −70 mV): 35±5%
